Experimental data reported in US6750008B1, “Methods and compositions for inhibition of membrane fusion-associated events, including HIV transmission” (priority 1999, dated 2004).

Key:
HIV-1IIIB = type: cell-based
HIV-1LAI virus [1] = tested on: HIV-1LAI virus
Protocol: (§1) Synthetic peptides were incubated at 37° C. with either 247 TCID50 (for experiment depicted in FIG. 2), or 62 TCID50 (for experiment depicted in FIG. 3) units of HIV-1LAI virus or 25 TCID50 units of HIV-2NIHZ and CEM CD4^+ cells at peptide concentrations of 0, 0.04, 0.4, 4.0, and 40 μg/ml for 7 days. The resulting reverse transcriptase (RT) activity in counts per minute was determined using the assay described, below, in Section 6.1.5. See Reed, L. J. et al., 1938, Am. J. Hyg. 27: 493-497 for an explanation of TCID50 calculations.
(§2) The micro-reverse transcriptase (RT) assay was adapted from Goff et al. (Goff, S. et al., 1981, J. Virol. 38:239-248) and Willey et al. (Willey, R. et al., 1988, J. Virol. 62:139-147). Supernatants from virus/cell cultures are adjusted to 1% Triton-X100. A 10 μl sample of supernatant was added to 50 μl of RT cocktail in a 96-well U-bottom microtitre plate and the samples incubated at 37° C. for 90 min. The RT cocktail contained 75 mM KCl, 2 mM dithiothreitol, 5 mM MgCl2, 5 μg/ml poly A (Pharmacia, cat. No. 27-4110-01), 0.25 units/ml oligo dT (Pharmacia, cat. No. 27-7858-01), 0.05% NP40, 50 mM Tris-HCl, pH 7.8, 0.5 μM non-radioactive dTTP, and 10 μCi/ml ^32P-dTTP (Amersham, cat. No. PB.10167).
After the incubation period, 40 μl of reaction mixture was applied to a Schleicher and Schuell (S+S) NA45 membrane (or DE81 paper) saturated in 2×SSC buffer (0.3M NaCl and 0.003M sodium citrate) held in a S+S Minifold over one sheet of GB003 (S+S) filter paper, with partial vacuum applied. Each well of the minifold was washed four times with 200 μl 2×SSC, under full vacuum. The membrane was removed from the minifold and washed 2 more times in a pyrex dish with an excess of 2×SSC. Finally, the membrane was drained on absorbent paper, placed on Whatman #3 paper, covered with Saran wrap, and exposed to film overnight at −70° C.
DP178 (SEQ ID:1) was next tested for its ability to block CD-4^+ CEM cell infection by cell free HIV-1 virus. […]

Fab-d = experiment: ELISA analysis of DP178 binding to the leucine zipper motif of gp41 (Fab-d ELISA); parameters: species or system human; conditions: reagent alone
Protocol: The amino acid sequence of DP178 used is: […]. […] Each well was washed three times with distilled water then blocked with 3% bovine serum albumin (BSA) for 2 hours. After blocking, peptides with 0.5% BSA in TBST (40 mM Tris-HCl pH7.5, 150 mM NaCl, 0.05% Tween 20) were added to the ELISA plates and incubated at room temperature for 1 hour. After washing three times with TBST, Fab-d was added at a concentration of 10 ng/ml with 0.5% BSA in TBST. The plates were washed three times with TBST after incubation at room temperature for 1 hour. Horse radish peroxidase (HRP) conjugated goat antihuman Fab antiserum at a 2000 fold dilution in TBST with 0.5% BSA was added to each well and incubated at room temperature for 45 minutes. The plates were then washed four times with TBST. The peroxidase substrate o-phenylene diamine (2.5 mg/ml) and 0.15% H2O2 were added to develop the color. The reaction was stopped with an equal volume of 4.5 N H2SO4 after incubation at room temperature for 10 minutes. The optical density of the stopped reaction mixture was measured with a micro plate reader (Molecular Design) at 490 nm.

[2] = tested on: HIV-1IIIB chronically infected CEM cells; type: cell-based; conditions: 10 nM
Protocol: Cell fusion assays were performed as previously described (Matthews et al., 1987, Proc. Natl. Acad. Sci. USA 84: […]). CEM cells (7×10^4) were incubated with HIV-1IIIB chronically infected CEM cells (10^4) in 96-well flat-bottomed half-area plates (Costar) in 100 μl culture medium. Peptide and fusion proteins at various concentrations in 10 μl culture medium were incubated with the cell mixtures at 37° C. for 24 hours. Multinucleated syncytia were estimated with microscopic examination.
No peptide or fusion protein was added in the control samples.

HIV-2NIHZ = experiment: Cell free virus infection assay (RT production); type: cell-based; conditions: 25 TCID50 HIV-2NIHZ, CEM cells, 7 days
Protocol: as §1
as §2, with “PB.10167). […]” for “PB.10167).”

HIV-2 = experiment: Fusion inhibition assay, HIV-2 mediated syncytia formation; type: cell-based; conditions: FIG. 5
Protocol: Approximately 7×10^4 Molt cells were incubated with 1×10^4 CEM cells chronically infected with the HIV-1LAI virus in 96-well plates (one-half area cluster plates; Costar, Cambridge, Mass.) in a final volume of 100 μl culture medium as previously described (Matthews, T. J. et al., 1987, Proc. Natl. Acad. Sci. USA 84: 5424-5428). Peptide inhibitors were added in a volume of 10 μl and the cell mixtures were incubated for 24 hr. at 37° C. At that time, multinucleated giant cells were estimated by microscopic examination at a 40× magnification which allowed visualization of the entire well in a single field.

HIV-1LAI virus [3] = experiment: Cell fusion assay (HIV-1 induced syncytia formation); type: cell-based
Source text: The results of several such experiments are presented herein.

HIV-1/IIIb = experiment: Anti-HIV assays of DP107/DP178 truncations and mutations; type: cell-based; conditions: worded 'results shown are for 4 ng/ml'
Source text: Anti-HIV assays: The antiviral assays performed were as those described, above, in Section 6.1. Assays utilized HIV-1/IIIb and/or HIV-2 NIHZ isolates. Purified peptides were used, unless otherwise noted in FIGS. 49A-C.

Enfuvirtide
IC90 (HIV-1IIIB): 80 nM | IC50, inhibition of RT production (HIV-1LAI virus [1]; 62 TCID50 HIV-1LAI, CEM cells, 7 days): about 31 ng/ml | potency as HIV-1 inhibitor relative to HIV-2 inhibitor (HIV-1LAI virus [1]; cell free virus infection): two logs more potent | binding of Fab-d (Fab-d): failed to bind | syncytia in HIV-1 induced cell-cell fusion [2]: not observable syncytia | IC50 for HIV-2NIHZ (HIV-2NIHZ): much higher | concentration failing to block HIV-2 mediated syncytia formation (HIV-2): > 10 µg/mL | selectivity as inhibitor of HIV-1-mediated over HIV-2 mediated cell fusion (HIV-1LAI virus [3]): 4 log | peptide concentration blocking HIV-1-mediated syncytia formation (HIV-1LAI virus [3]; FIG. 5, HIV-1 vs HIV-2): below 1 ng/ml | complete protection against syncytium formation down to lowest concentration tested (HIV-1LAI virus [3]; HIV-1LAI): ≤ 12.5 ng/mL | lowest effective inhibitory concentration, complete block of virus induced syncytia formation (HIV-1LAI virus [3]; Molt cells + chronically HIV-1 infected CEM cells, 24 hr): 1 to 10 ng/mL | complete protection against syncytium formation down to lowest concentration used (HIV-1LAI virus [3]; all other HIV-1 viruses (HIV-1MN, HIV-1RF, HIV-1SF2)): ≤ 100 ng/mL | anti-HIV antiviral data, results shown (FIGS. 49A-C) (HIV-1/IIIb): 4 ng/mL
